Test results taken from the NIST ThermoML archive (doi:10.1016/j.jct.2019.02.003).

Settings: 84 kPa, Liquid, Pycnometric method

CN(CCO)CCO [N-methyldiethanolamine]
Settings	mass density [kg/m3]
293.15 K	1041.12
303.15 K	1033.6
313.15 K	1025.83
323.15 K	1017.8
333.15 K	1010.8
343.15 K	1002.76
